According to paper PMC7145991, “Biochemical Functions of Glutathione S-Transferase Family of Salix babylonica” (Frontiers in Plant Science, 2020):

Key:
Assay in all cases: spectrophotometric GSH-CDNB conjugation, nonlinear regression
Assay type in all cases: biochemical
Details in all cases: GSH fixed 1.0 mM; 50 mM potassium phosphate pH 6.5; 25 °C; read-out: K mCDNB /
SbGSTU10 = molecular target: T1, SbGSTU10 (Salix babylonica, UniProt A0A4Y5QZX3)
T1 construct: gene GSTU10; full length, 6xHis-tag (pET30a), E. coli BL21 (DE3), Ni-Sepharose
Text: spectrophotometric GSH-CDNB conjugation, nonlinear regression on SbGSTU10

SbGSTU12 = molecular target: T2, SbGSTU12 (Salix babylonica, UniProt A0A4Y5R0C1)
T2 construct: gene GSTU12; full length, 6xHis-tag (pET30a), E. coli BL21 (DE3), Ni-Sepharose
Text: spectrophotometric GSH-CDNB conjugation, nonlinear regression on SbGSTU12

SbGSTU1 = molecular target: T3, SbGSTU1 (Salix babylonica, UniProt A0A4Y5R2M7)
T3 construct: gene GSTU1; full length, 6xHis-tag (pET30a), E. coli BL21 (DE3), Ni-Sepharose
Text: spectrophotometric GSH-CDNB conjugation, nonlinear regression on SbGSTU1

SbGSTU7 = molecular target: T4, SbGSTU7 (Salix babylonica, UniProt A0A4Y5R087)
T4 construct: gene GSTU7; full length, 6xHis-tag (pET30a), E. coli BL21 (DE3), Ni-Sepharose
Text: spectrophotometric GSH-CDNB conjugation, nonlinear regression on SbGSTU7

SbGSTU13 = molecular target: T5, SbGSTU13 (Salix babylonica, UniProt A0A4Y5R0L5)
T5 construct: gene GSTU13; full length, 6xHis-tag (pET30a), E. coli BL21 (DE3), Ni-Sepharose
T5 sequence (A0A4Y5R0L5 1-222): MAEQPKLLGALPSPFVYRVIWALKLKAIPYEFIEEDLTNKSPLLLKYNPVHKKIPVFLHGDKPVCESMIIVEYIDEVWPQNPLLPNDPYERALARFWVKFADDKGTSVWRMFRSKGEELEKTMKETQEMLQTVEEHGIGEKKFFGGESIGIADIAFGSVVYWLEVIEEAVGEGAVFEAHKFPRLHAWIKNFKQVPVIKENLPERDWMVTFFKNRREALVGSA
Text: spectrophotometric GSH-CDNB conjugation, nonlinear regression on SbGSTU13

SbGSTU3 = molecular target: T6, SbGSTU3 (Salix babylonica, UniProt A0A4Y5R0K8)
T6 construct: gene GSTU3; full length, 6xHis-tag (pET30a), E. coli BL21 (DE3), Ni-Sepharose
T6 sequence (A0A4Y5R0K8 1-220): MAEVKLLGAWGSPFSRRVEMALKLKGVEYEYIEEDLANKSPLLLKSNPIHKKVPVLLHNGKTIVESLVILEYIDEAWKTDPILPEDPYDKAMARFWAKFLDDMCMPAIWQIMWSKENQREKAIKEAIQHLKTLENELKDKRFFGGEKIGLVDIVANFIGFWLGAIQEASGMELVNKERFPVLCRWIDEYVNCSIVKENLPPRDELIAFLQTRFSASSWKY
Text: spectrophotometric GSH-CDNB conjugation, nonlinear regression on SbGSTU3

T1 sequence (A0A4Y5QZX3 1-220): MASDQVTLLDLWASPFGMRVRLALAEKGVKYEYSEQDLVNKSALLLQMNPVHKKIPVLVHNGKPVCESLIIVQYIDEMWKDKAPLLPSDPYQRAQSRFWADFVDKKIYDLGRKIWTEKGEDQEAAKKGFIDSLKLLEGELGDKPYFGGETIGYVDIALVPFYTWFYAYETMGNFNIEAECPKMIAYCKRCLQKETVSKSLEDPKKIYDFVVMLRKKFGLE
T2 sequence (A0A4Y5R0C1 1-222): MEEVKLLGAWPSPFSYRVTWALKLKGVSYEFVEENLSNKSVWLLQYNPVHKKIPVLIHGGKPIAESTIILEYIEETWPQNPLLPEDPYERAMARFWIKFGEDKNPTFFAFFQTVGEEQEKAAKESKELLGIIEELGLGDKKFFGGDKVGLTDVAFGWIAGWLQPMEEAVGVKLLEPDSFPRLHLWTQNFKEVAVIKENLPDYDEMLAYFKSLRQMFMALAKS
T3 sequence (A0A4Y5R2M7 1-219): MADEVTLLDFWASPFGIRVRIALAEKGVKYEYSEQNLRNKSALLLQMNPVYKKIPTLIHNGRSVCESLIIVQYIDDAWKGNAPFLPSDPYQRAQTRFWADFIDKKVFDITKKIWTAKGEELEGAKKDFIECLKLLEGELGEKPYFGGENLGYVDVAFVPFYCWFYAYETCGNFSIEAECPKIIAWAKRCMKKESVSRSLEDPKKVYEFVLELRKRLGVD
T4 sequence (A0A4Y5R087 1-219): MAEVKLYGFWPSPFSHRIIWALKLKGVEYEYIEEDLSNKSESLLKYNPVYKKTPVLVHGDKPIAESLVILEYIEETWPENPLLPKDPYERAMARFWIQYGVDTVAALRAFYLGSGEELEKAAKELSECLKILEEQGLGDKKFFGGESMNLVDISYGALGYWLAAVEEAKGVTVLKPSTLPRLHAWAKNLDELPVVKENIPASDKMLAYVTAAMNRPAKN

SMILES: O=[N+]([O-])c1ccc(Cl)c([N+](=O)[O-])c1 [CDNB, 1-chloro-2,4-dinitrobenzene]
- Km (SbGSTU10): 156 ± 2 µM
- Km (SbGSTU12): 2140 ± 272 µM
- Km (SbGSTU1): 201 ± 4 µM
- Km (SbGSTU7): 2070 ± 165 µM
- Km (SbGSTU13): 1270 ± 62 µM
- Km (SbGSTU3): 1000 ± 33 µM
